Measured values reported in the supplement of paper PMC9663587.

How the values were obtained:
Neratinib/HKI272 [1] = compound: T1, CCOc1cc2ncc(C#N)c(Nc3ccc(OCc4ccccn4)c(Cl)c3)c2cc1NC(=O)/C=C/CN(C)C [Neratinib/HKI272]; assay: GR value, 72 h; higher = faster growth (1 = untreated, <0 = killing);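 also: breast cancer and non-malignant breast epithelial lines, nine half-log doses, viable cells counted by Hoechst and LIVE/DEAD dye imaging versus time-zero plates and DMSO controls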
Flavopiridol [2] = compound: T2, CN1CC[C@H](c2c(O)cc(O)c3c(=O)cc(-c4ccccc4Cl)oc23)[C@H](O)C1 [Flavopiridol]; assay: as above
[3] = compound: CCc1cnn2c(NCc3ccc[n+]([O-])c3)cc(N3CCCC[C@H]3CCO)nc12; assay: increase in dead-cell fraction, 72 h; higher = more death;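 also: breast cancer cell lines in 384-well plates, stained with Hoechst plus LIVE/DEAD far red dye and imaged, cells above an LDR intensity threshold counted dead, Hoechst-negative corpses included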
[4] = compound: CCN1CCN(Cc2ccc(Nc3ncc(F)c(-c4cc(F)c5nc(C)n(C(C)C)c5c4)n3)nc2)CC1; assay: as above
THZ531 = compound: CN(C)C/C=C/C(=O)Nc1ccc(C(=O)N2CCC[C@@H](Nc3ncc(Cl)c(-c4c[nH]c5ccccc45)n3)C2)cc1 [THZ531]; assay: as above
YKL-5-124 = compound: C=CC(=O)Nc1ccc(C(=O)Nc2[nH]nc3c2CN(C(=O)N[C@H](CN(C)C)c2ccccc2)C3(C)C)cc1 [YKL-5-124]; assay: as above
Neratinib/HKI272 [5] = compound: T1, Neratinib/HKI272; assay: as above
LEE011/Ribociclib = compound: CN(C)C(=O)c1cc2cnc(Nc3ccc(N4CCNCC4)cn3)nc2n1C1CCCC1 [LEE011/Ribociclib]; assay: as above
Flavopiridol [6] = compound: T2, Flavopiridol; assay: as above
THZ1 = compound: CN(C)C/C=C/C(=O)Nc1ccc(C(=O)Nc2cccc(Nc3ncc(Cl)c(-c4c[nH]c5ccccc45)n3)c2)cc1 [THZ1]; assay: as above
[7] = compound: CC(=O)c1c(C)c2cnc(Nc3ccc(N4CCNCC4)cn3)nc2n(C2CCCC2)c1=O; assay: as above
BSJ-03-123 = compound: CC(=O)c1c(C)c2cnc(Nc3ccc(N4CCN(CCOCCOCCOCCNC(=O)COc5cccc6c5C(=O)N(C5CCC(=O)NC5=O)C6=O)CC4)cn3)nc2n(C2CCCC2)c1=O [BSJ-03-123]; assay: as above

SUM1315
GR value (Neratinib/HKI272 [1]; 0.0003162 µM): 1.07 GR
GR value (Neratinib/HKI272 [1]; 0.001 µM): 0.992 GR
GR value (Neratinib/HKI272 [1]; 0.003162 µM): 1.01 GR
GR value (Neratinib/HKI272 [1]; 0.01 µM): 0.908 GR
GR value (Neratinib/HKI272 [1]; 0.03162 µM): 0.69 GR
GR value (Neratinib/HKI272 [1]; 0.1 µM): 0.517 GR
GR value (Neratinib/HKI272 [1]; 0.3162 µM): 0.309 GR
GR value (Neratinib/HKI272 [1]; 1 µM): 0.162 GR
GR value (Neratinib/HKI272 [1]; 3.162 µM): 0.101 GR
GR value (Flavopiridol [2]; 0.0001 µM): 1.09 GR
GR value (Flavopiridol [2]; 0.0003162 µM): 0.97 GR
GR value (Flavopiridol [2]; 0.001 µM): 0.741 GR
GR value (Flavopiridol [2]; 0.003162 µM): 0.795 GR
GR value (Flavopiridol [2]; 0.01 µM): 0.876 GR
GR value (Flavopiridol [2]; 0.03162 µM): 0.76 GR
GR value (Flavopiridol [2]; 0.1 µM): 0.647 GR
GR value (Flavopiridol [2]; 0.3162 µM): -0.451 GR
GR value (Flavopiridol [2]; 1 µM): -0.887 GR
increase in dead-cell fraction ([3]; 0.0001 µM): -0.0013
increase in dead-cell fraction ([3]; 0.0003162 µM): -0.0006
increase in dead-cell fraction ([3]; 0.001 µM): 0.0062
increase in dead-cell fraction ([3]; 0.003162 µM): 0.0147
increase in dead-cell fraction ([3]; 0.01 µM): 0.0232
increase in dead-cell fraction ([3]; 0.03162 µM): 0.578
increase in dead-cell fraction ([3]; 0.1 µM): 0.63
increase in dead-cell fraction ([3]; 0.3162 µM): 0.64
increase in dead-cell fraction ([3]; 1 µM): 0.599
increase in dead-cell fraction ([4]; 0.001 µM): 0.0105
increase in dead-cell fraction ([4]; 0.003162 µM): 0.0024
increase in dead-cell fraction ([4]; 0.01 µM): -0.0018
increase in dead-cell fraction ([4]; 0.03162 µM): 0.0186
increase in dead-cell fraction ([4]; 0.1 µM): 0.0167
increase in dead-cell fraction ([4]; 0.3162 µM): 0.025
increase in dead-cell fraction ([4]; 1 µM): 0.0225
increase in dead-cell fraction ([4]; 3.162 µM): 0.0197
increase in dead-cell fraction ([4]; 10 µM): 0.132
increase in dead-cell fraction (THZ531; 0.0001 µM): 0.0119
increase in dead-cell fraction (THZ531; 0.0003162 µM): -0.0037
increase in dead-cell fraction (THZ531; 0.001 µM): -0.0061
increase in dead-cell fraction (THZ531; 0.003162 µM): 0.0067
increase in dead-cell fraction (THZ531; 0.01 µM): 0.001
increase in dead-cell fraction (THZ531; 0.03162 µM): -0.0178
increase in dead-cell fraction (THZ531; 0.1 µM): -0.0022
increase in dead-cell fraction (THZ531; 0.3162 µM): 0.0155
increase in dead-cell fraction (THZ531; 1 µM): 0.204
increase in dead-cell fraction (YKL-5-124; 0.001 µM): 0.0195
increase in dead-cell fraction (YKL-5-124; 0.003162 µM): 0.0396
increase in dead-cell fraction (YKL-5-124; 0.01 µM): 0.0503
increase in dead-cell fraction (YKL-5-124; 0.03162 µM): 0.0215
increase in dead-cell fraction (YKL-5-124; 0.1 µM): 0.0766
increase in dead-cell fraction (YKL-5-124; 0.3162 µM): 0.0731
increase in dead-cell fraction (YKL-5-124; 1 µM): 0.171
increase in dead-cell fraction (YKL-5-124; 3.162 µM): 0.134
increase in dead-cell fraction (YKL-5-124; 10 µM): 0.364
increase in dead-cell fraction (Neratinib/HKI272 [5]; 0.0003162 µM): 0.0036
increase in dead-cell fraction (Neratinib/HKI272 [5]; 0.001 µM): 0.0058
increase in dead-cell fraction (Neratinib/HKI272 [5]; 0.003162 µM): 0.0067
increase in dead-cell fraction (Neratinib/HKI272 [5]; 0.01 µM): 0.0047
increase in dead-cell fraction (Neratinib/HKI272 [5]; 0.03162 µM): 0.0181
increase in dead-cell fraction (Neratinib/HKI272 [5]; 0.1 µM): 0.0402
increase in dead-cell fraction (Neratinib/HKI272 [5]; 0.3162 µM): 0.0578
increase in dead-cell fraction (Neratinib/HKI272 [5]; 1 µM): 0.0857
increase in dead-cell fraction (Neratinib/HKI272 [5]; 3.162 µM): 0.0855
increase in dead-cell fraction (LEE011/Ribociclib; 0.001 µM): 0.0236
increase in dead-cell fraction (LEE011/Ribociclib; 0.003162 µM): 0.0101
increase in dead-cell fraction (LEE011/Ribociclib; 0.01 µM): 0.0448
increase in dead-cell fraction (LEE011/Ribociclib; 0.03162 µM): 0.0191
increase in dead-cell fraction (LEE011/Ribociclib; 0.1 µM): 0.054
increase in dead-cell fraction (LEE011/Ribociclib; 0.3162 µM): 0.071
increase in dead-cell fraction (LEE011/Ribociclib; 1 µM): 0.0703
increase in dead-cell fraction (LEE011/Ribociclib; 3.162 µM): 0.0888
increase in dead-cell fraction (LEE011/Ribociclib; 10 µM): 0.114
increase in dead-cell fraction (Flavopiridol [6]; 0.0001 µM): 0.0039
increase in dead-cell fraction (Flavopiridol [6]; 0.0003162 µM): -0.0083
increase in dead-cell fraction (Flavopiridol [6]; 0.001 µM): 0.0048
increase in dead-cell fraction (Flavopiridol [6]; 0.003162 µM): 0.0087
increase in dead-cell fraction (Flavopiridol [6]; 0.01 µM): 0.0083
increase in dead-cell fraction (Flavopiridol [6]; 0.03162 µM): 0.0248
increase in dead-cell fraction (Flavopiridol [6]; 0.1 µM): -0.0084
increase in dead-cell fraction (Flavopiridol [6]; 0.3162 µM): 0.383
increase in dead-cell fraction (Flavopiridol [6]; 1 µM): 0.596
increase in dead-cell fraction (THZ1; 0.0001 µM): 0.0131
increase in dead-cell fraction (THZ1; 0.0003162 µM): -0.0262
increase in dead-cell fraction (THZ1; 0.001 µM): -0.0208
increase in dead-cell fraction (THZ1; 0.003162 µM): 0.0035
increase in dead-cell fraction (THZ1; 0.01 µM): -0.0115
increase in dead-cell fraction (THZ1; 0.03162 µM): -0.0232
increase in dead-cell fraction (THZ1; 0.1 µM): -0.0483
increase in dead-cell fraction (THZ1; 0.3162 µM): 0.0421
increase in dead-cell fraction (THZ1; 1 µM): 0.61
increase in dead-cell fraction ([7]; 0.0003162 µM): -0.0007
increase in dead-cell fraction ([7]; 0.001 µM): -0.0011
increase in dead-cell fraction ([7]; 0.003162 µM): -0.0024
increase in dead-cell fraction ([7]; 0.01 µM): 0.0003
increase in dead-cell fraction ([7]; 0.03162 µM): 0.0166
increase in dead-cell fraction ([7]; 0.1 µM): 0.0188
increase in dead-cell fraction ([7]; 0.3162 µM): 0.0295
increase in dead-cell fraction ([7]; 1 µM): 0.0213
increase in dead-cell fraction ([7]; 3.162 µM): 0.0282
increase in dead-cell fraction (BSJ-03-123; 0.001 µM): -0.0091
increase in dead-cell fraction (BSJ-03-123; 0.003162 µM): 0.0246
increase in dead-cell fraction (BSJ-03-123; 0.01 µM): 0.0376
increase in dead-cell fraction (BSJ-03-123; 0.03162 µM): 0.0297
increase in dead-cell fraction (BSJ-03-123; 0.1 µM): 0.0105
increase in dead-cell fraction (BSJ-03-123; 0.3162 µM): -0.0013
increase in dead-cell fraction (BSJ-03-123; 1 µM): 0.033
increase in dead-cell fraction (BSJ-03-123; 3.162 µM): 0.03
increase in dead-cell fraction (BSJ-03-123; 10 µM): 0.0923
